Source: patent US5334528A (priority 1989, dated 1994)
Several values for one entry are separate records, joined by “and”; a condition that tells them apart may be missing. Equal values may be shown once. Where a name gives a salt, the structure may show the parent alone.

system: monoclonal antibody from hybridoma Hept-2; type: binding, mice

Compound | % Crossreactivity | I50
Clc1ccc(Cl)c(Cl)c1 [1,2,4-triCl-Bz] | 0% | –
Clc1ccccc1Cl [1,2-diCl-Bz] | 0% | –
Clc1cccc(Cl)c1 [1,3-diCl-Bz] | 0% | –
Clc1ccc(Cl)cc1 [1,4-diCl-Bz] | 0% | –
OCC(Cl)(Cl)Cl [2,2,2-tri-Cl-ethanol] | 0.4% | –
Oc1cc(Cl)c(Cl)cc1Cl [2,4,5-triCl-phenol] | 0% | –
O=C(O)COc1cc(Cl)c(Cl)cc1Cl [2,4,5-triCl-phenoxyacetic acid] | 0% | –
Oc1c(Cl)cc(Cl)cc1Cl [2,4,6-triCl-phenol] | 0% | –
O=C(O)COc1ccc(Cl)cc1Cl [2,4-D] | 0% | –
Cc1ccc(O)c(C)c1 [2,4-DiMe-phenol] | 0% | –
O=[N+]([O-])c1cc(Cl)cc(Cl)c1O [2,4-diCl-6-nitrophenol] | 0% | –
Oc1ccc(Cl)cc1Cl [2,4-diCl-phenol] | 0% | –
O=[N+]([O-])c1ccc(O)c([N+](=O)[O-])c1 [2,4-dinitro-phenol] | 0.2% | –
O=[N+]([O-])c1cc(Cl)ccc1Cl [2,5-diCl-nitroBz] | 0% | –
Clc1ccc2ccccc2c1 [2-Cl-naphthalene] | 0% | –
Oc1ccccc1Cl [2-Cl-phenol] | 0% | –
O=[N+]([O-])c1ccccc1O [2-nitro-phenol] | 0% | –
Oc1cc(Cl)c(Cl)cc1O [4,5-diCl-catecol] | 0% | –
Cc1cc(O)ccc1Cl [4-Cl-3-Me phenol] | 0% | –

Compound | % Crossreactivity | I50
O=[N+]([O-])c1ccc(O)cc1 [4-nitro-phenol] | 0% | –
Clc1ccccc1 [Chlorobenzene] | 0% | –
Clc1ccc(C(c2ccc(Cl)cc2)C(Cl)(Cl)Cl)cc1 [DDT] | 0% | –
O=S1OCC2C(CO1)C1(Cl)C(Cl)=C(Cl)C2(Cl)C1(Cl)Cl (stereo not shown) [Endosulfan (mix), 6,7,8,9,10,10-Hexachloro-1,5,5a,6,9,9a-hexahydro-6,9,-methano-2,4,3-benzo[e]-dioxathiepin-3-oxide] | 173% | –
O=S1(=O)OCC2C(CO1)C1(Cl)C(Cl)=C(Cl)C2(Cl)C1(Cl)Cl (stereo not shown) [Endosulfansulfate, endosulfan sulfate] | 182% | –
O=C1C2(Cl)C3(Cl)C4(Cl)C(Cl)(Cl)C5(Cl)C3(Cl)C1(Cl)C5(Cl)C24Cl (stereo not shown) [Kepone, Decachloro-octahydro-1,3,4,-metheno-2H-cyclobuta(cd) pentalen-2-one] | 5% | –
ClC1C(Cl)C(Cl)C(Cl)C(Cl)C1Cl (stereo not shown) [Lindand (BHC), 1,2,3,4,5,6-Hexachlorocyclohexane] | 7.3% | –
O=S1OCC2C(CO1)C1(Cl)C(Cl)=C(Cl)C2(Cl)C1(Cl)Cl (stereo not drawn) [a-Endosulfan, alpha-endosulfan] | 43% | –
ClC1=C(Cl)C2(Cl)C3C4C=CC(C4)C3C1(Cl)C2(Cl)Cl (stereo not drawn) [aldrin, 1,2,3,4,10,10-Hexachloro-1,4,4a,5,8,8a hexahydro-1,4-exo, endo-5,8,-dimethanonaphthalene (HHDN)] | 100% | 1-10 ng/well
ClC1=C(Cl)C2(Cl)C3C(Cl)C(Cl)CC3C1(Cl)C2(Cl)Cl (stereo not shown) [chlordane, 2,3,4,5,6,7,8,8-Octachloro-2,3,3a,4,7,7a-hexahydro-4,7-methanoindene] | 75% | 1-10 ng/well
ClC1=C(Cl)C2(Cl)C3C4CC(C5OC45)C3C1(Cl)C2(Cl)Cl [endrin, (1R, 4S, 5R, 8S) 1,2,3,4,10,10-hexachloro-6,7-epoxy-1,4,4a,5,6,7,8,8a-octahydro-exo-5,8,dimethano-naphthalene] | 150% | 1-10 ng/well
ClC1=C(Cl)C2(Cl)C3C4OC4C(Cl)C3C1(Cl)C2(Cl)Cl (stereo not shown) [heptachlor epoxide] | 100% | 1-10 ng/well
ClC1=C(Cl)C2(Cl)C3C(Cl)C=CC3C1(Cl)C2(Cl)Cl (stereo not drawn) [heptachlor, 1,-exo-,4,5,6,7,8,8,-Heptachloro-3a,4,7,7a-tetrahydro-4,7-methanoindene] | 100% | 2-4 ng/well and 1-10 ng/well
ClC(Cl)=C(Cl)C(Cl)=C(Cl)Cl [hexa-Cl-butadiene] | 0.4% | –
ClC1=C(Cl)C(Cl)(Cl)C(Cl)=C1Cl [hexa-Cl-cyclopentadiene] | 1.6% | –
ClC(Cl)(Cl)C(Cl)(Cl)Cl [hexa-Cl-ethane] | 0% | –
Oc1c(Cl)c(Cl)c(Cl)c(Cl)c1Cl [penta-Cl-phenol] | 0% | –
Oc1ccccc1 [phenol] | 0% | –
O=S1OCC2C(CO1)C1(Cl)C(Cl)=C(Cl)C2(Cl)C1(Cl)Cl (stereo not drawn) [β-Endosulfan, beta-endosulfan] | 250% | –
